One experiment has as its target T1, human FPR1 (Homo sapiens, UniProt P21462).
T1 sequence (P21462 1-350): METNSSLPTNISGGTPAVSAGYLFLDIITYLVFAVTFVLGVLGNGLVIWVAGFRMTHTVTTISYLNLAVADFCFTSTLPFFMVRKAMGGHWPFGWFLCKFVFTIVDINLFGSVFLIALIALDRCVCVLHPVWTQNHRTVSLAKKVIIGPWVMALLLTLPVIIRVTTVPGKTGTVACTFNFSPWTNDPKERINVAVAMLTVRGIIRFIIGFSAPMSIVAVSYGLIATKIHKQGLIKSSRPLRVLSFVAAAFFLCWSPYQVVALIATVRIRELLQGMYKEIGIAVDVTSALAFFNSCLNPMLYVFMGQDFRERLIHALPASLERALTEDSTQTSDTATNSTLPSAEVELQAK
The experiment in a line: FPR1 cyclic adenosine monophosphate (cAMP) assay. The experiment is classed as cell-based. To be noted: CHO cells overexpressing human FPR1; forskolin 10 μM; inhibition of cAMP production; HTRF; read-out: hFPR1 cAMP2 EC50. An outline of the steps: (§1)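 Gi-coupled activity is read as suppression of forskolin-stimulated cAMP (10 μM final for FPR1, 5 μM final for FPR2; IBMX 200 μM final) in recombinant CHO cells, 30 min incubation at rt, HTRF detection.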
A general note: Cyclic AMP is a second messenger, typically raised through Gs and lowered through Gi signalling.

The next experiment deals with T2, human FPR2 (Homo sapiens, UniProt P25090).
T2 sequence (P25090 1-351): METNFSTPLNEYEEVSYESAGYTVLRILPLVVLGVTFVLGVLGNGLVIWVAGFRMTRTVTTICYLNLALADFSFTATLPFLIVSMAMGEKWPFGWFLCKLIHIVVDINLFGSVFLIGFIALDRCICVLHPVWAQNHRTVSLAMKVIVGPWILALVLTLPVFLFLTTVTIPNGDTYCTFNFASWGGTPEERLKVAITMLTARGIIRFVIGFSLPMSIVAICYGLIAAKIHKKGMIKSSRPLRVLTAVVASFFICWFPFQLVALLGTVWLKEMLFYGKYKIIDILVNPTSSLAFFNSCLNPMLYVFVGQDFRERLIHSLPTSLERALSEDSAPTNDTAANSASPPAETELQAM
The experiment in a line: FPR2 cyclic adenosine monophosphate (cAMP) assay. The experiment is classed as cell-based. The conditions noted are these: CHO cells overexpressing human FPR2; forskolin 5 μM; inhibition of cAMP production; HTRF; read-out: hFPR2 cAMP2 EC50. An outline of the steps: as §1

On to `COc1cc(F)c(-c2c(NC(=O)c3ccc(OC(F)F)cc3)c(=O)n(-c3ccc(F)cc3)n2C)c(F)c1` [Example 12, N-[5-(2,6-difluoro-4-methoxyphenyl)-2-(4-fluorophenyl)-1-methyl-3-oxo-2,3-dihydro-1H-pyrazol-4-yl]-4-(difluoromethoxy)benzamide], for which the EC50 (as a rule, the concentration giving half of the maximal effect) at human FPR1 is 1.6 µM; on human FPR2, 0.017 µM.

With `COc1cc(OCC2CCCO2)nc(-n2c(=O)c(NC(=O)c3ccc(OC(F)F)cc3)c(-c3c(F)cc(OC)cc3F)n2C)c1` (centres unmarked) [Example 339, N-(5-(2,6-Difluoro-4-methoxyphenyl)-2-(4-methoxy-6-((tetrahydrofuran-2-yl)methoxy)pyridin-2-yl)-1-methyl-3-oxo-2,3-dihydro-1H-pyrazol-4-yl)-4-(difluoromethoxy)benzamide], the figures for the EC50 at human FPR1 and on human FPR2 were greater than 10 µM and 0.008 µM, respectively.

On to `COc1cc(F)c(-c2c(NC(=O)c3ccc(OC(F)F)cc3)c(=O)n(-c3nc(NCC(N)=O)ccc3C(F)(F)F)n2C)c(F)c1` [Example 226, N-(2-{6-[(carbamoylmethyl)amino]-3-(trifluoromethyl)pyridin-2-yl}-5-(2,6-difluoro-4-methoxyphenyl)-1-methyl-3-oxo-2,3-dihydro-1H-pyrazol-4-yl)-4-(difluoromethoxy)benzamide], for which the figures for the EC50 at human FPR1 and on human FPR2 were greater than 10 µM and 0.013 µM, respectively.

As to `Cn1c(-c2ccc(OC(F)(F)F)cc2)c(NC(=O)c2ccc(OC(F)F)cc2)c(=O)n1-c1ncccc1C(F)(F)F` [Example 304, 4-(difluoromethoxy)-N-{1-methyl-3-oxo-5-[4-(trifluoromethoxy)phenyl]-2-[3-(trifluoromethyl)pyridin-2-yl]-2,3-dihydro-1H-pyrazol-4-yl}benzamide], the figures for the EC50 on human FPR1 and at human FPR2 were 0.11 µM and 0.021 µM, respectively.

In the case of `COc1cc(F)c(-c2c(NC(=O)c3ccc(OC(F)F)cc3)c(=O)n(-c3nc(NC4COC4)ccc3C(F)(F)F)n2C)c(F)c1` [Example 253, N-[5-(2,6-difluoro-4-methoxyphenyl)-1-methyl-2-{6-[(oxetan-3-yl)amino]-3-(trifluoromethyl)pyridin-2-yl}-3-oxo-2,3-dihydro-1H-pyrazol-4-yl]-4-(difluoromethoxy)benzamide], the EC50 at human FPR1 was greater than 10 µM; at human FPR2, 0.005 µM.

On to `COc1ccc(-c2c(NC(=O)c3ccc(OC(F)F)cc3)c(=O)n(-c3nc(N4CCC(C)(O)CC4)ccc3C(F)(F)F)n2C)c(F)c1` [Example 313, 4-(difluoromethoxy)-N-[5-(2-fluoro-4-methoxyphenyl)-2-[6-(4-hydroxy-4-methylpiperidin-1-yl)-3-(trifluoromethyl)pyridin-2-yl]-1-methyl-3-oxo-2,3-dihydro-1H-pyrazol-4-yl]benzamide], for which the EC50 was 0.21 µM on human FPR1 and 0.001 µM at human FPR2.

As to `COc1cc(F)c(-c2c(NC(=O)c3ccc(OC(F)F)cc3)c(=O)n(-c3nc(C(C)(C)C)ccc3C#N)n2C)c(F)c1` [Example 190, N-[2-(6-tert-butyl-3-cyanopyridin-2-yl)-5-(2,6-difluoro-4-methoxyphenyl)-1-methyl-3-oxo-2,3-dihydro-1H-pyrazol-4-yl]-4-(difluoromethoxy)benzamide], the values for the EC50 at human FPR1 and on human FPR2 were greater than 10 µM and 0.003 µM, respectively.

For `COc1cc(F)c(-c2c(NC(=O)c3ccc(OC(F)F)cc3)c(=O)n(-c3nc(C4CCN(S(C)(=O)=O)CC4)ccc3Cl)n2C)c(F)c1` [Example 316, N-{2-[3-chloro-6-(1-methanesulfonylpiperidin-4-yl)pyridin-2-yl]-5-(2,6-difluoro-4-methoxyphenyl)-1-methyl-3-oxo-2,3-dihydro-1H-pyrazol-4-yl}-4-(difluoromethoxy)benzamide], the EC50 at human FPR1 is greater than 5 µM; on human FPR2, 0.002 µM.

In the case of `COc1cc(OCCO)nc(-n2c(=O)c(NC(=O)c3ccc(OC(F)F)cc3)c(-c3c(F)cc(OC)cc3F)n2C)c1` [Example 332, N-(5-(2,6-Difluoro-4-methoxyphenyl)-2-(6-(2-hydroxyethoxy)-4-methoxypyridin-2-yl)-1-methyl-3-oxo-2,3-dihydro-1H-pyrazol-4-yl)-4-(difluoromethoxy)benzamide], the EC50 was greater than 10 µM at human FPR1 and 0.003 µM on human FPR2.

In the case of `CCc1ccc(N2CC(C)(O)C2)nc1-n1c(=O)c(NC(=O)c2ccc(OC(F)F)cc2)c(-c2c(F)cc(OC)cc2F)n1C` [Example 310, N-[5-(2,6-difluoro-4-methoxyphenyl)-2-[3-ethyl-6-(3-hydroxy-3-methylazetidin-1-yl)pyridin-2-yl]-1-methyl-3-oxo-2,3-dihydro-1H-pyrazol-4-yl]-4-(difluoromethoxy)benzamide], the results for the EC50 at human FPR1 and on human FPR2 were greater than 10 µM and 0.007 µM, respectively.

On to `COc1cc(F)c(-c2c(NC(=O)c3ccc(OC(F)F)cc3)c(=O)n(-c3ccccn3)n2C)c(F)c1` [Example 44, N-[5-(2,6-difluoro-4-methoxyphenyl)-1-methyl-3-oxo-2-(pyridin-2-yl)-2,3-dihydro-1H-pyrazol-4-yl]-4-(difluoromethoxy)benzamide], for which the EC50 at human FPR1 was greater than 10 µM; on human FPR2, 0.016 µM.

Take `COC(=O)c1cncc(-n2c(=O)c(NC(=O)c3ccc(OC(F)F)cc3)c(-c3c(F)cc(OC)cc3F)n2C)c1` [Example 128, methyl 5-[3-(2,6-difluoro-4-methoxyphenyl)-4-[4-(difluoromethoxy)benzamido]-2-methyl-5-oxo-2,3-dihydro-1H-pyrazol-1-yl]pyridine-3-carboxylate]: the EC50 at human FPR1 came out at 0.019 µM; on human FPR2, 0.007 µM.

Take `COc1cc(F)c(-c2c(NC(=O)c3ccc(OC(F)F)cc3)c(=O)n(-c3nc(N4CCC(C(N)=O)C4)ccc3C(F)(F)F)n2C)c(F)c1` (centres unmarked) [Example 305, 1-{6-[3-(2,6-difluoro-4-methoxyphenyl)-4-[4-(difluoromethoxy)benzamido]-2-methyl-5-oxo-2,5-dihydro-1H-pyrazol-1-yl]-5-(trifluoromethyl)pyridin-2-yl}pyrrolidine-3-carboxamide]: the EC50 at human FPR1 was determined as 3.9 µM; on human FPR2, 0.002 µM.

For `COc1cc(F)c(-c2c(NC(=O)c3ccc(Cl)nc3)c(=O)n(-c3ccccc3)n2C)c(F)c1` [Example 25, 6-chloro-N-[5-(2,6-difluoro-4-methoxyphenyl)-1-methyl-3-oxo-2-phenyl-2,3-dihydro-1H-pyrazol-4-yl]pyridin-3-carboxamide], the values for the EC50 on human FPR1 and at human FPR2 were greater than 10 µM and 0.28 µM, respectively.

As to `COc1ccc(-c2c(NC(=O)c3ccc(OC(F)F)cc3)c(=O)n(-c3ncccc3C(F)(F)F)n2C)cc1C` [Example 246, 4-(difluoromethoxy)-N-(5-(4-methoxy-3-methylphenyl)-1-methyl-3-oxo-2-(3-(trifluoromethyl)pyridin-2-yl)-2,3-dihydro-1H-pyrazol-4-yl)benzamide], the EC50 on human FPR1 was greater than 10 µM; at human FPR2 it was 0.315 µM.

In the case of `COC(=O)[C@@H]1CCCN1c1ccc(C(F)(F)F)c(-n2c(=O)c(NC(=O)c3ccc(OC(F)F)cc3)c(-c3c(F)cc(OC)cc3F)n2C)n1` [Example 259, methyl (2S)-1-{6-[3-(2,6-difluoro-4-methoxyphenyl)-4-[4-(difluoromethoxy)benzamido]-2-methyl-5-oxo-2,5-dihydro-1H-pyrazol-1-yl]-5-(trifluoromethyl)pyridin-2-yl}pyrrolidine-2-carboxylate], the EC50 was greater than 10 µM at human FPR1 and 0.01 µM on human FPR2.

`COc1cc(F)c(-c2c(NC(=O)c3ccc(Cl)cc3)c(=O)n(-c3nc(N4CC(OC(C)C)C4)ccc3C(F)(F)F)n2C)c(F)c1` [Example 141, 4-chloro-N-[5-(2,6-difluoro-4-methoxyphenyl)-1-methyl-3-oxo-2-{6-[3-(propan-2-yloxy)azetidin-1-yl]-3-(trifluoromethyl)pyridin-2-yl}-2,3-dihydro-1H-pyrazol-4-yl]benzamide]: the EC50 came out at 3.3 µM at human FPR1 and 0.007 µM at human FPR2.

As for `COc1cc(F)c(-c2c(NC(=O)c3ccc(OC(F)F)cc3)c(=O)n(-c3cccc(C)c3C)n2C)c(F)c1` [Example 3, N-[5-(2,6-difluoro-4-methoxyphenyl)-2-(2,3-dimethylphenyl)-1-methyl-3-oxo-2,3-dihydro-1H-pyrazol-4-yl]-4-(difluoromethoxy)benzamide], the figures for the EC50 at human FPR1 and at human FPR2 were 1.9 µM and 0.008 µM, respectively.

As to `COC(=O)c1cc(Cl)cc(-n2c(=O)c(NC(=O)c3ccc(OC(F)F)cc3)c(-c3c(F)cc(OC)cc3F)n2C)c1` [Example 120, methyl 3-chloro-5-[3-(2,6-difluoro-4-methoxyphenyl)-4-[4-(difluoromethoxy)benzamido]-2-methyl-5-oxo-2,5-dihydro-1H-pyrazol-1-yl]benzoate], the half-maximal effective concentration (EC50) turned out to be 6 µM on human FPR1 and 0.004 µM on human FPR2.

Values taken from patent publication US12577206B2 (BRISTOL-MYERS SQUIBB COMPANY, priority 2020, dated 2026).
